{
  "source": "patent US6989377B2",
  "about": "“Treating vitamin D responsive diseases” (priority 1999, dated 2006)",
  "key": {"[1]": {"tested_on": "DS-induced colitis in C3H/HeJ male mice", "experiment": "Calcitriol prevention of DS-induced colitis", "format": "in vivo, mouse", "method": "Fecal hemoglobin was analyzed in the mice to determine bleeding from a breached intestinal barrier. […] Co., Needham Heights, Mass.), the supernatants were decanted into fresh tubes and stored frozen at -20° C. Hemoglobin in the supernatants was analyzed by a method adapted from Saitoh et al., Digestion, 56:67-75, 1995, and Liem et al., Anal. Biochem., 98:388-393, 1979, with rat hemoglobin as standard (Sigma-Aldrich). The supernatants were diluted 1:25 in TBS. […] The reaction was stopped with 100 μL of 2 M phosphoric acid, and the absorbance at 450 nm was measured with an MRX Revelation Microplate Reader (DYNEX Technologies). […] The mice were euthanized with an i.p. injection of pentobarbital. […] The fixed tissue was embedded in paraffin, sectioned at 6 μm, stained with hematoxylin and eosin, and examined by light microscopy. Scoring was conducted by a veterinary pathologist in blinded fashion. […] Clin. Invest., 98:1010-1020, 1996. The scores were summed to provide a total colitis score for each mouse. […] In particular, age-matched C3H/HeJ male mice were fed a synthetic diet (see Example 6) with or without calcitriol or prednisolone for one week. […] The mice were weighed every 3-4 days thereafter. […] Serum and colon tissue were collected on day 28. Most assays were performed as described in Example 6, and the terminal serum calcium assay was performed as described below. […] The serum was decanted and stored frozen at -20° C. The samples, standards, and buffer blanks (2 μL each) were aliquoted into duplicate wells of a 96-well plate. Calcium reagent working solution (0.25 mL), prepared according to the manufacturer's directions (Sigma Diagnostics, St. Louis, Mo.), was added to each well, and the absorbance at 570 nm was measured."}, "[2]": {"tested_on": "chronic DS-induced IBD in C3H/HeJ male mice", "experiment": "Calcitriol treatment of chronic DS-induced colitis", "format": "in vivo, mouse", "method": "Fecal hemoglobin was analyzed in the mice to determine bleeding from a breached intestinal barrier. […] Co., Needham Heights, Mass.), the supernatants were decanted into fresh tubes and stored frozen at -20° C. Hemoglobin in the supernatants was analyzed by a method adapted from Saitoh et al., Digestion, 56:67-75, 1995, and Liem et al., Anal. Biochem., 98:388-393, 1979, with rat hemoglobin as standard (Sigma-Aldrich). The supernatants were diluted 1:25 in TBS. […] The reaction was stopped with 100 μL of 2 M phosphoric acid, and the absorbance at 450 nm was measured with an MRX Revelation Microplate Reader (DYNEX Technologies). […] The mice were euthanized with an i.p. injection of pentobarbital. […] The fixed tissue was embedded in paraffin, sectioned at 6 μm, stained with hematoxylin and eosin, and examined by light microscopy. Scoring was conducted by a veterinary pathologist in blinded fashion. […] Clin. Invest., 98:1010-1020, 1996. The scores were summed to provide a total colitis score for each mouse. […] The serum was decanted and stored frozen at -20° C. The samples, standards, and buffer blanks (2 μL each) were aliquoted into duplicate wells of a 96-well plate. Calcium reagent working solution (0.25 mL), prepared according to the manufacturer's directions (Sigma Diagnostics, St. Louis, Mo.), was added to each well, and the absorbance at 570 nm was measured. […] In particular, age-matched adult C3H/HeJ male mice were subjected to three DS treatment cycles treatment separated by 6-8 weeks. […] Between treatments, the mice were fed laboratory mouse chow. These treatments induced chronic IBD. Beginning 10 days after the last DS treatment was completed, the mice were divided into two groups. The groups were matched with respect to fecal Hg and weight (Table 6). Group A was fed synthetic diet and group B was fed calcitriol in synthetic diet. The experiment was terminated 21 days later."}, "[3]": {"tested_on": "129-IL-10−/− mice", "experiment": "Spontaneous colitis in strain 129-IL-10-deficient mice", "format": "in vivo, mouse", "description": "This example describes the spontaneous colitis that develops spontaneously in strain 129-IL-10^−/− mice with and without administration of calcitriol. It has been reported that mice made genetically deficient in IL-10 spontaneously develop chronic enterocolitis (Kuhn et al., Cell, 75:263-274, 1993) if resident enteric bacteria is present (Sellon et al., Infect. Immunity, 66:5224-5231, 1998). The effect of calcitriol on spontaneous colitis in 129-IL-10^−/− mice is examined. […] The mice were age 7 weeks when they were exposed to soiled bedding from mice housed under conventional conditions. This was done to provide the enteric bacteria for development of colitis."}, "[4]": {"tested_on": "DSS-induced colitis in 129X1/SvJ male mice", "experiment": "Treatment at the first signs of DSS-induced colitis in 129X1/SvJ mice", "format": "in vivo, mouse", "description": "The 129×1/SvJ strain is genetically similar to the 129/Ola strain and to the 129/SvPas strain, which is less susceptible to DSS-induced colitis than C3H/HeJ."}, "[5]": {"tested_on": "EAE in mice", "conditions": "cited from earlier work"}, "[6]": {"tested_on": "Lyme arthritis in mice", "conditions": "calcitriol administered to mice; cited from earlier work"}, "[7]": {"tested_on": "collagen induced arthritis in mice", "conditions": "calcitriol administered to mice; cited from earlier work"}, "[8]": {"conditions": "50 ng/day after cycle 3, 21 days, 3 cycles of 1% DS"}, "[9]": {"conditions": "50 ng/day after cycle 3, 3 cycles of 1% DS"}, "[10]": {"conditions": "50 ng/d from day 4 of 1% DSS, terminated 21 days later"}, "[11]": {"conditions": "given before EAE induction or at stage 1 EAE"}},
  "data": [
    {"smiles": "C=C1/C(=C\\C=C2/CCC[C@]3(C)[C@@H]([C@H](C)CCCC(C)(C)O)CC[C@@H]23)C[C@@H](O)C[C@@H]1O", "note": "[Calcitriol, 1,25 dihydroxyvitamin D3]", "values": [
      {"measurement": "Peak Hg in Stool", "setting": "[1]; 50 ng/day in diet from day −7, 1% DS days 0 to 5", "result": "4.3 ± 4.4", "unit": "mg/g"},
      {"measurement": "Effect of pre-treatment on severity of DS-induced IBD", "setting": "[1]; 50 ng/day pre-treatment", "result": "reduced the severity of DS-induced IBD"},
      {"measurement": "Colon Histopathology, Distal colon", "setting": "[1]; 50 ng/day, 1% DS, score 0 to 4", "result": "0.6 ± 0.9"},
      {"measurement": "Colon histopathology, Medial colon", "setting": "[1]; 50 ng/day, 1% DS, score 0 to 4", "result": "0.4 ± 0.9"},
      {"measurement": "Colon histopathology, Proximal colon", "setting": "[1]; 50 ng/day, 1% DS, score 0 to 4", "result": "0.4 ± 0.5"},
      {"measurement": "Colon histopathology, Rectum", "setting": "[1]; 50 ng/day, 1% DS, score 0 to 4", "result": "1.2 ± 1.1"},
      {"measurement": "Colon histopathology, Sum", "setting": "[1]; 50 ng/day, 1% DS, total score 0 to 16", "result": "2.6 ± 1.9"},
      {"measurement": "Peak Hg in the stool, lower than that in the prednisolone-treated group", "setting": "[1]; calcitriol 50 ng/day vs prednisolone 50 ng/day", "result": 65, "unit": "%"},
      {"measurement": "Peak Hg in the stool, lower than that in the untreated group", "setting": "[1]; calcitriol 50 ng/day vs untreated DS group", "result": 37, "unit": "%"},
      {"measurement": "Total colon histopathology score, lower than the score of the untreated group B", "setting": "[1]; calcitriol group C vs group B", "result": 61, "unit": "%"},
      {"measurement": "Total colon histopathology score, lower than the score of the prednisolone-treated group D", "setting": "[1]; calcitriol group C vs group D", "result": 51, "unit": "%"},
      {"measurement": "Terminal serum calcium", "setting": "[2]; [8]", "result": "10.3 ± 1.1", "unit": "mg/dL"},
      {"measurement": "Terminal weight", "setting": "[2]; [8]", "result": "35.1 ± 4.0", "unit": "g"},
      {"measurement": "Colon Histopathology, Distal colon", "setting": "[2]; [9]", "result": "1 ± 1"},
      {"measurement": "Colon histopathology, Medial colon", "setting": "[2]; [9]", "result": "1 ± 1"},
      {"measurement": "Colon histopathology, Proximal colon", "setting": "[2]; [9]", "result": "2 ± 1"},
      {"measurement": "Colon histopathology, Rectum", "setting": "[2]; [9]", "result": "2 ± 1"},
      {"measurement": "Colon histopathology, Sum", "setting": "[2]; [9]", "result": "6 ± 2"},
      {"measurement": "Hemoglobin in Stool (DS cycle 3)", "setting": "[2]; DS cycle 3, before calcitriol was started (groups matched for fecal Hg)", "result": "9 ± 10", "unit": "mg/g"},
      {"measurement": "Effect on severity of chronic DS-induced IBD", "setting": "[2]; calcitriol in synthetic diet for 21 days", "result": "reduced the severity of chronic DS-induced IBD"},
      {"measurement": "Reduction in colon histopathology", "setting": "[2]; treated with calcitriol for 21 days", "result": "approximately 45%"},
      {"measurement": "Colon Histopathology, Distal colon", "setting": "[3]; 10 ng/day", "result": "4 ± 0"},
      {"measurement": "Colon histopathology, Medial colon", "setting": "[3]; 10 ng/day", "result": "4 ± 0"},
      {"measurement": "Colon histopathology, Proximal colon", "setting": "[3]; 10 ng/day", "result": "4 ± 0"},
      {"measurement": "Colon histopathology, Rectum", "setting": "[3]; 10 ng/day", "result": "4 ± 0"},
      {"measurement": "Colon histopathology, Sum", "setting": "[3]; 10 ng/day", "result": "16 ± 0"},
      {"measurement": "Peak hemoglobin in stool", "setting": "[3]; 10 ng/day in synthetic diet", "result": "0 ± 0"},
      {"measurement": "Terminal serum calcium", "setting": "[3]; 10 ng/day in synthetic diet", "result": "12.5 ± 1.5", "unit": "mg/dL"},
      {"measurement": "Terminal weight", "setting": "[3]; 10 ng/day in synthetic diet", "result": "19.5 ± 1.5", "unit": "g"},
      {"measurement": "Effect on spontaneous colitis", "setting": "[3]; 129-IL-10−/− mice", "result": "did not prevent spontaneous colitis"},
      {"measurement": "Hypercalcemia", "setting": "[3]; 129-IL-10−/− mice", "result": "developed hypercalcemia"},
      {"measurement": "Colon Histopathology, Distal colon", "setting": "[4]; 50 ng/d from day 4 of 1% DSS", "result": "0.6 ± 0.9"},
      {"measurement": "Colon Histopathology, Middle colon", "setting": "[4]; 50 ng/d from day 4 of 1% DSS", "result": "0 ± 0"},
      {"measurement": "Colon Histopathology, Rectum + anus", "setting": "[4]; 50 ng/d from day 4 of 1% DSS", "result": "0.2 ± 0.4"},
      {"measurement": "Colon histopathology, Proximal colon", "setting": "[4]; 50 ng/d from day 4 of 1% DSS", "result": "0.4 ± 0.8"},
      {"measurement": "Colon histopathology, Sum", "setting": "[4]; 50 ng/d from day 4 of 1% DSS", "result": "1.2 ± 1.8"},
      {"measurement": "Peak fecal hemoglobin", "setting": "[4]; 50 ng/d from day 4 of 1% DSS, 1 cycle, terminated 21 days later", "result": "1.3 ± 1.2", "unit": "mg/g"},
      {"measurement": "Terminal Serum Ca", "setting": "[4]; [10]", "result": "9.7 ± 3.2", "unit": "mg/dL"},
      {"measurement": "Terminal weight", "setting": "[4]; [10]", "result": "26.4 ± 3.3", "unit": "g"},
      {"measurement": "Colon histopathology compared to the mock-treated and prednisolone-treated mice", "setting": "[4]; three weeks later", "result": "significant reduction in colon histopathology"},
      {"measurement": "Disease induction for EAE", "setting": "[5]; calcitriol administered to mice", "result": "blocked disease induction"},
      {"measurement": "Clonal expansion of Th1 cells producing IFN-γ and TNF-α", "setting": "[5]; [11]", "result": "arrested the clonal expansion of Th1 cells"},
      {"measurement": "Transcript accumulation for TGF-β1 and IL-4 in central nervous system and lymph nodes", "setting": "[5]; [11]", "result": "stimulated an increase in transcript accumulation"},
      {"measurement": "Disease induction for Lyme arthritis", "setting": "[6]", "result": "blocked disease induction"},
      {"measurement": "Disease induction for collagen induced arthritis", "setting": "[7]", "result": "blocked disease induction"}
    ]}
  ]
}
